Source: PMC7792996, “Crystal structure of death-associated protein kinase 1 in complex with the dietary compound resveratrol” (IUCrJ, 2021)

Experiments:
[1] = biological target: T1, Death-associated protein kinase 1 (DAPK1) (Homo sapiens, UniProt P53355); experiment: fluorescent probe saturation binding (BC50), competed by RSV
T1 construct: catalytic domain, residues 1–285

[2] = biological target: T1, Death-associated protein kinase 1 (DAPK1); experiment: malachite green intrinsic ATPase assay at […] ATP; type: biochemical

T1 sequence (P53355 1-285): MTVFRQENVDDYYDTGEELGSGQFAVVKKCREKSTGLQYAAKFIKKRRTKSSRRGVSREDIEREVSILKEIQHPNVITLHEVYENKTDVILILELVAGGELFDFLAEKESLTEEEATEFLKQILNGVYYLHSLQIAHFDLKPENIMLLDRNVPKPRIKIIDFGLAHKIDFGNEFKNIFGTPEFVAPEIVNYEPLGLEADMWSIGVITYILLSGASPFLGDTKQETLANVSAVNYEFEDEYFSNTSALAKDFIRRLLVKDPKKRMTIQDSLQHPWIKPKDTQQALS

With `O=S(=O)(O)c1cccc2cccc(Nc3ccccc3)c12` [ANS, 8-anilinonaphthalene-1-sulfonic acid] the Kd [1] was 7.3 µM.
For `O=c1c(O)c(-c2ccc(O)cc2)oc2cc(O)cc(O)c12` [KAE, kaempferol], the “malachite green intrinsic ATPase assay at 30 μM ATP” value [2] was “The inhibitory potency of KAE was higher than that of API”.
